The values below come from patent US4908351A, “Antibiotic a 42867 derivative” (Merrell Dow Pharmaceuticals Inc., priority 1988, dated 1990).

What all share (experiment): MIC, broth dilution test
Type in all cases: cell-based

For one test, the system named is Staph. aureus L 165. As to conditions: Isosensitest broth, 24 h, 37° C. The method, then: Culture media and growth conditions for MIC (minimal inhibitory concentration) determinations were as follows: Isosensitest broth (Oxoid), 24 h, for staphylococci, Strep. faecalis and Gram-negative bacteria (Escherichia coli); Todd-Hewitt broth (Difco), 24 h for other streptococcal species; GC base broth (Difco) +1% Isovitalex (BBL), 48 h, CO2 -enriched atmosphere for Neisseria gonorrhoeae; Brain Heart broth (Difco) +1% Supplement C (Difco), 48 h for Haemophilus influenzae. PPLO broth with supplements as in R. T. Evans and D. Taylor-Robinson (J. Antimicrob. Chemother. 4, 57), 24 h for U. urealyticum. Incubation was at 37° C. […] The minimal inhibitory concentrations (MIC, microgram/ml) for some microorganisms are reported below in Table I.

The subject of test [1] is Escherichia coli L 47 SKF 12140. As to conditions: Isosensitest broth, 24 h, 37° C. Here is the method:
(§1) Culture media and growth conditions for MIC (minimal inhibitory concentration) determinations were as follows: Isosensitest broth (Oxoid), 24 h, for staphylococci, Strep. faecalis and Gram-negative bacteria (Escherichia coli); Todd-Hewitt broth (Difco), 24 h for other streptococcal species; GC base broth (Difco) +1% Isovitalex (BBL), 48 h, CO2 -enriched atmosphere for Neisseria gonorrhoeae; Brain Heart broth (Difco) +1% Supplement C (Difco), 48 h for Haemophilus influenzae. PPLO broth with supplements as in R. T. Evans and D. Taylor-Robinson (J. Antimicrob. Chemother. 4, 57), 24 h for U. urealyticum. Incubation was at 37° C. Inocula were as follows: about 10^4 color-changing units/ml for U. urealyticum; about 10^4 -10^5 colony-forming units/ml for other broth dilution MICs. The minimal inhibitory concentrations (MIC, microgram/ml) for some microorganisms are reported below in Table I.

The test system of test [2] is Haemophilus influenzae type b L 970 ATCC 19418. The settings on record: Brain Heart broth +1% Supplement C, 48 h, 37° C. Here is the method: as §1
In test [3] the test system is Neisseria gonorrhoeae L 997 ISM 68/126. As to conditions: GC base broth +1% Isovitalex, 48 h, CO2-enriched atmosphere, 37° C. Here is the method: as §1
The test system of test [4] is Staph. epidermidis L 147 ATCC 12228 (coagulase negative). As to conditions: Isosensitest broth, 24 h, 37° C. Here is the method:
as §1

Test [5] relates to Staph. haemolyticus clin isolate. The settings on record: Isosensitest broth, 24 h, 37° C. The method, then: as §1
The subject of test [6] is Strep. faecalis L 149 ATCC 7080. The settings on record: Isosensitest broth, 24 h, 37° C. Here is the method:
as §1

In test [7] the test system is Strep. mitis L 796 (clinical isolate). As to conditions: Todd-Hewitt broth, 24 h, 37° C. Here is the method: as §1
The test system of test [8] is Strep. pneumoniae L 44 UC 41. The settings on record: Todd-Hewitt broth, 24 h, 37° C. The method, then:
as §1

Test [9] has as its system Strep. pyogenes L 49 C 203. The settings on record: Todd-Hewitt broth, 24 h, 37° C. Here is the method:
as §1

For test [10], the system named is Ureaplasma urealyticum 1479 clin. isolate. The settings on record: PPLO broth with supplements, 24 h, about 10^4 color-changing units/ml, 37° C. The method, then: as §1

Bounds are passed on as bounds.

antibiotic A 42867 pseudoaglycon: the M.I.C. in the test on Staph. aureus L 165 (Staph. aureus 10^6 cfu/ml) was 1 microgram/ml; in the test with Staph. aureus L 165 (Staph. aureus 30% bovine serum), 2 microgram/ml; in the test on Staph. aureus L 165 (Staph. aureus L 165, 10^4 cfu/ml), 1 microgram/ml; in test [1] it was > 128 microgram/ml; in [2] it was > 128 microgram/ml; in test [3], 64 microgram/ml. The M.I.C. is reported as 2 microgram/ml in test [4]; 2 microgram/ml in test [5]; 2 microgram/ml in test [6]; 0.5 microgram/ml in test [7]; 1 microgram/ml in test [8]; 0.5 microgram/ml in test [9]. In test [10], the M.I.C. was > 128 microgram/ml.
